Measured values published in ChEMBL document CHEMBL1158717, “A cytotoxic carotenoid from the marine sponge Prianos osiros” (J Nat Prod, 2005).
Converted amounts (≈) assume the structure as drawn.

Tested on: HCT-116
Assay: Cytotoxicity against human HCT116 after 72 hrs by MTS assay
Format: functional, cell-based
Settings: HCT-116, 72 h

CC1=C(C#C/C(=C/C=C/C(C)=C/C=C/C=C(C)/C=C/C=C(\C)C(=O)/C=C2\C(C)(C)C[C@H](O)C[C@@]2(C)O)CO)C(C)(C)C[C@H](O)C1
IC50: 4.38 µg/mL (≈ 7.12 µM)
